Test results taken from US20230043678A1, “USE OF 5-METHYLTETRAHYDROFOLATE” (priority 2019, published 2023).
Like-named read-outs stand apart in the source and are kept apart here.

Tests used:
zebrafish embryos [1] = system: zebrafish embryos
Experimental: Transgenic zebrafish (fli-1:EGFP) were from the Model Animal Research Center of Nanjing University. Adult zebrafish aged less than 1 year were used for experiment and fed at a water pH value of 7±0.2, a temperature around 28° C. and a ratio of illumination to darkness of 14 h:10 h, and with Artemia salina eggs twice a day. Three zebrafish, one female, two males, were placed in a spawning box the night before and eggs were collected the next morning. Fish eggs were placed in an embryo culture medium (prepared with 0.2 g/L of sea salt) and cultured at 28° C.
Zebrafish embryos were cultured in 24-well plates with 10 embryos per well at 2 hpf in a dosing manner, drug solutions of the above concentrations in the table were separately added, termination was conducted at 8 hpf, and the embryos were washed and transferred to an egg solution for continuous culture to 72 hpf. Dead embryos were cleaned up in time. Each experiment was conducted in triplicate.
A phenotype of malformation was observed, the number of all abnormal zebrafish where the malformation was present was recorded and a malformation rate and a rescue rate of each group were calculated. Morphological defects, a heart rate, cardiac morphology and other indicators were observed and evaluated by an SMZ745T inverted stereomicroscope.

zebrafish embryos [2] = conditions: 30 mM HCHO
zebrafish embryos [3] = system: zebrafish embryos; remark: listed apart in the source
Experimental: Transgenic zebrafish (fli-1:EGFP) were from the Model Animal Research Center of Nanjing University. Adult zebrafish aged less than 1 were used for experiment and fed at a water pH value of 7±0.2, a temperature around 28° C. and a ratio of illumination to darkness of 14 h:10 h, and with Artemia salina eggs twice a day. Three zebrafish, one female, two males, were placed in a spawning box the night before and eggs were collected the next morning. Fish eggs were placed in an embryo culture medium (prepared with 0.2 g/L of sea salt) and cultured at 28° C. […] Dead embryos were cleaned up in time. A phenotype of malformation was observed, the number of all abnormal zebrafish where the malformation was present was recorded and a malformation rate and a rescue rate of each group were calculated. Morphological defects, a heart rate, cardiac morphology and other indicators were observed and evaluated by an SMZ745T inverted stereomicroscope.

zebrafish embryos [4] = system: zebrafish embryos; remark: listed apart in the source
Experimental: A table was listed below for details.
5-Selected concentrations of methyltetrahydrofolate in the experiment were recorded in the table.

CCO [EtOH, ethanol]
survival rate (zebrafish embryos [1]; […] EtOH): significantly different from that of the control group | heart rate (zebrafish embryos [1]; zebrafish, in vivo): led to a malformed phenotype of bradycardia in zebrafish embryos | lower intestinal network blood vessels (zebrafish embryos [1]; zebrafish, in vivo): led to developmental disorders of lower intestinal network blood vessels of the zebrafish | pericardium edema (zebrafish embryos [1]; zebrafish, in vivo): led to a malformed phenotype of pericardium edema in zebrafish embryos

C=O [HCHO, formaldehyde]
lethality and teratogenicity to zebrafish (zebrafish embryos [2]): lethal but not teratogenic to zebrafish | pericardium edema and heart rate (48 hpf), body length (72 hpf) (zebrafish embryos [2]): had no effect on the pericardium edema, the heart rate and the body length of the zebrafish | survival rate of embryos (zebrafish embryos [2]): severely lead to a low survival rate of embryos | embryo development (zebrafish embryos [2]; 8 hpf): delayed development of the zebrafish embryos | heart shape and lower intestinal network blood vessels (zebrafish embryos [2]; 72 hpf): normal heart shape and normal development of lower intestinal network blood vessels

CN(Cc1cnc2nc(N)nc(N)c2n1)c1ccc(C(=O)N[C@@H](CCC(=O)O)C(=O)O)cc1 [MTX, methotrexate]
pericardium edema and 10 s heart rate (48 hpf), body length (72 hpf) (zebrafish embryos [3]; 1.5 mM MTX): seriously led to pericardium edema, bradycardia, and a shortened body length of zebrafish | survival rate of embryos (zebrafish embryos [3]; 1.5 mM MTX, 6-10 hpf): lower than 0.1 | embryo phenotype (zebrafish embryos [3]; 1.5 mM MTX, 24 hpf): led to hypoplasia and deformities such as small heads and short tails of zebrafish | embryo phenotype (zebrafish embryos [3]; 1.5 mM MTX, 48 hpf): led to body bending, intersegmental vascular hypoplasia and pericardium edema of zebrafish | embryo phenotype (zebrafish embryos [3]; 1.5 mM MTX, 72 hpf): led to a short body length and lower intestinal network vessel hypoplasia | Malformation rate (zebrafish embryos [3]; MTX group (1.5 mM)): 100%

COc1cccc2c1cc([N+](=O)[O-])c1c(C(=O)O)cc3c(c12)OCO3 [aristolochic acid A]
pericardium edema and 10 s heart rate (48 hpf), body length (72 hpf) (zebrafish embryos [4]; 1-5 μM aristolochic acid A): seriously led to pericardium edema, bradycardia, and a shortened body length in zebrafish | embryo phenotype (zebrafish embryos [4]; 1-5 μM aristolochic acid A, 8 hpf and 24 hpf): did not lead to obvious embryonic development delay, malformation and death | survival rate of embryos (zebrafish embryos [4]; 2-5 μM aristolochic acid A): seriously reduce a survival rate of embryos | embryo phenotype (zebrafish embryos [4]; aristolochic acid A, 72 hpf): showed a complete deficiency of development of the lower intestinal network blood vessels of the zebrafish | embryo phenotype (zebrafish embryos [4]; aristolochic acid A, increasing concentration, 48 hpf): gradually showed pericardium edema, a slowed heart rate, curved bodies, a disappeared systemic blood flow, hematocele, yolk sac opacity
